Test results reported in publication PMC5095173, “Disulfide-activated protein kinase G Iα regulates cardiac diastolic relaxation and fine-tunes the Frank–Starling response” (Nature Communications, 2016).
Where no end group is shown, it is not given here. [ ]: non-standard residue; d: D form. pT = C[C@@H](OP(=O)(O)O)[C@H](N)C(=O)O; Met(O) = CS(=O)CC[C@H](N)C(=O)O; pS = N[C@@H](COP(=O)(O)O)C(=O)O

Tests used:
[1] = system: PKGIα (VASP phosphorylation) in mouse embryonic fibroblasts; details: ref Muller et al. Free Radic Biol Med 53, 1574-1583 (2012); cited from earlier work
Excerpt: This transgenic model was developed by the Sadoshima lab (Newark, USA) and the data are included in a PhD thesis (2015) by Daniel Stubbert from this lab. We have amended the manuscript so that it now states that the ...

[2] = system: PLN threonine 17; details: cardiac myocytes exposed to hydrogen peroxide; no reference given; cited from earlier work
[3] = system: PKGIα (analogue-sensitive C42S/M438G), cGMP-activated; test: Chemical genetic phosphoproteomic screen, cGMP-activated PKGIα C42S/M438G versus unactivated control; type: biochemical, human PKGIα; substrates in rat heart homogenate; details: for log2 fold change cGMP vs Control: control = PKGIα C42S/M438G; for log2 fold changes: Group 1 (cGMP-activated) vs Group 3 (control); for Log2 fold change in phosphorylation, cGMP versus control: PKGIα C42S/M438G + 100 μM cGMP vs basal, 1 h, 30 °C, pH 7.5, rat heart homogenate, label-free LC–MS/MS, n=4, * P<0.05 Dunnett: all values except phospholamban S16
Excerpt: (§1) We employed a chemical genetic method[18] to identify direct substrates of cGMP-activated PKGIα and disulfide bond-activated PKGIα in heart tissue. This method involves mutation of the ATP binding-site of the kinase of interest so that it can accept a ‘bulky' N6-alkylated ATP analogue for example, N6^−phenylethyl ATP. An oxygen atom on the γ phosphate is also replaced with a sulfur atom—giving an N6-alkylated ATPγS analogue—so that the mutant kinase catalyses the transfer of a thiophosphate group (–PO3S^3−) to its substrates instead of a phosphate. The thiophosphate group is nucleophilic, providing a basis for substrates of the analogue-sensitive kinase to be purified by a ‘covalent capture' protocol. LC–MS/MS allows identification of the substrate and localization of the phosphorylation site. Thiophosphorylated proteins can also be detected with a thiophosphate ester-specific antibody. Analogue-sensitive mutants of PKGIα and PKGIα C42S (which cannot form the activating intermolecular disulfide bond) were generated by mutating Met438 in the ATP-binding domain to Gly. This mutation was chosen based on a previous study where an analogue-sensitive mutant of the catalytic subunit of PKA—which shares sequence homology with PKGIα—was engineered. Detailed protocols are given below.
(§2) A pCDNA3 expression vector encoding human FLAG-tagged PKGIα (ref. [41]) underwent site-directed mutagenesis to generate constructs for untagged WT, C42S, M438G and C42S/M438G PKGIα. Mutations were introduced using the QuikChange II Site-Directed Mutagenesis Kit (Agilent) according to the manufacturer's instructions. Expression and purification of the PKGIα mutants was performed according to a published method[42] as follows: suspension FreeStyle 293-F cells (ThermoFisher Scientific) were transfected with the appropriate PKGIα construct using the stable cationic polymer polyethyleneimine (PEI) as a transfection reagent. After ∼72 h cells were harvested by centrifugation (400g; room temperature; 15 min), re-suspended in ice cold lysis buffer (25 mM sodium phosphate buffer pH 6.8; 10 mM ethylenediaminetetraacetic acid (EDTA); 100 mM NaCl; 10 mM benzamidine hydrochloride; and 10 mM dithiothreitol (DTT)) and frozen in liquid N2. Cells were lysed by three freeze (liquid N2)-thaw (37 °C) cycles and the lysate was clarified by centrifugation at 140,000g and 4 °C for 30 min. The soluble protein fraction was loaded onto a pre-equilibrated 8-(2-aminoethylamino)adenosine-3′, 5′-cyclic monophosphate column (8-AEA-cAMP agarose; BioLog, Germany) followed by washing with 20 column volumes of lysis buffer. The column was further washed with lysis buffer +3 M NaCl (5 column volumes) and PKGIα was then eluted with lysis buffer +150 mM NaCl and 500 μM cAMP. Removal of cAMP and buffer exchange was achieved by extensive dialysis against 25 mM sodium phosphate buffer pH 6.8, 2 mM EDTA and 100 mM NaCl. For ITC analysis, WT PKGIα was incubated with 10 mM lipoic acid for 2 h on ice to obtain ∼100% disulfide dimer (confirmed by SDS-PAGE). Oxidized WT or C42S PKGIα was further purified by size exclusion chromatography using a HiLoad 16/600 Superdex 200 pg column (GE Healthcare) with 50 mM sodium phosphate buffer pH 7.4 and 100 mM NaCl. Proteins were concentrated using Amicon Ultra centrifugal filter devices (Merck Millipore). DTT was absent in storage buffers so that the activating disulfide bond would not be reduced and so that the PKGIα M438G mutant would be oxidized to disulfide dimer in the presence of air (confirmed by SDS-PAGE). Protein concentration was determined by Pierce BCA assay (ThermoFisher) and enzyme activity was confirmed using the Omnia kinase assay kit (ThermoFisher).
(§3) Male Wistar rats (9–10 weeks; body weight 300–330 g) were euthanized by intraperitoneal injection of sodium pentobarbitone (200 mg kg^−1) with heparin (500 USP units). […]

[4] = system: PKGIα (analogue-sensitive M438G), disulfide-activated; test: Chemical genetic phosphoproteomic screen, disulfide-activated PKGIα M438G versus unactivated control; type: biochemical, human PKGIα; substrates in rat heart homogenate; details: for log2 fold change Disulfide vs Control: control = PKGIα C42S/M438G; for log2 fold changes: Group 2 (disulfide-activated) vs Group 3 (control); for Log2 fold change in phosphorylation, Disulfide versus control: disulfide-activated PKGIα M438G vs basal, 1 h, 30 °C, pH 7.5, rat heart homogenate, label-free LC–MS/MS, * P<0.05 Dunnett: only phospholamban S16
Excerpt: as §1, §2, §3

[5] = system: PKGIα disulfide dimer; details: HEK cells, murine aortic rings or mesenteric blood vessels; ref Burgoyne et al. Hypertension 60, 1301-1308 (2012); Rudyk et al. Circulation 126, 287-295 (2012); cited from earlier work

Compound | log2 fold change cGMP vs Control [3] | log2 fold change Disulfide vs Control [4] | further results
OO [hydrogen peroxide] | – | – | effect of pre-oxidation of PKGIα on its activation by cGMP [1]: slightly attenuated; PLN threonine 17 phosphorylation [2]: will become phosphorylated
Mylk3 pS155 (KG[pS]LADGPEENKEQAEVAGVKPK) | 3.16 | 1.131 | –
Nucb2 pS85 (SGRLSQELDLVSHK; also: phosphoserine (pS85), site in peptide not given here) | -1.746 | -0.4443 | –
Limd1 pS303 | 2.801 | 2.11 | –
Set pS7 (RQ[pS]AILPQPK) | 3.804 | 1.764 | –
Mink1 pS997 (KG[pS]VVNVNPTNTR) | 0.5982 | 0.583 | –
Snx17 pS437 (LSSKLSAVSLR; also: phosphoserine pS437, several Ser, place not given here) | – | – | log2 fold changes [3]: 3.5; log2 fold changes [4]: 1.271
Clip2 pS353 | 2.051 | 0.983 | –
Mrps31 pS191 (RVSFTQIISNMK; also: phosphoserine (pS191), site in peptide not given here) | 0.6921 | 0.1676 | –
Speg pS2135 | – | – | log2 fold changes [3]: 4.01; log2 fold changes [4]: 1.764
Microtubule-associated protein 1A: PKGIα substrate, phospho site S460 | – | – | Log2 fold change in phosphorylation, cGMP versus control [3]: 2.41*; Log2 fold change in phosphorylation, Disulfide versus control ([4]; n=4): 0.59
E3 ubiquitin-protein ligase TRIP12: PKGIα substrate, phospho site S1073 | – | – | Log2 fold change in phosphorylation, cGMP versus control [3]: 1.63*; Log2 fold change in phosphorylation, Disulfide versus control ([4]; n=4): 0.66
Troponin I, cardiac muscle: PKGIα substrate, phospho site S167 | – | – | Log2 fold change in phosphorylation, cGMP versus control [3]: 3.49*; Log2 fold change in phosphorylation, Disulfide versus control ([4]; n=4): 1.65
Protein SET: PKGIα substrate, phospho site S7 | – | – | Log2 fold change in phosphorylation, cGMP versus control [3]: 3.80*; Log2 fold change in phosphorylation, Disulfide versus control ([4]; n=4): 1.76
Speg pS2410 | – | – | log2 fold changes [3]: -0.7401; log2 fold changes [4]: -0.1096
Mthfd1 pT545 (KITIGQAPTEK; also: phosphothreonine (pT545), site in peptide not given here) | 3.681 | 1.475 | –
Stmn1 pS31 (SKESVPEFPLSPPK; also: phosphoserine pS31, several Ser, place not given here) | – | – | log2 fold changes [3]: 4.264; log2 fold changes [4]: 0.3093
Pcnp pS95 (KASAISIR; also: phosphoserine (pS95), site in peptide not given here) | -1.793 | 0.1824 | –
Sarnp pS138 (GLSSDTKP[Met(O)]VNLDK; also: phosphoserine, site not given here) | – | – | log2 fold changes [3]: 4.118; log2 fold changes [4]: 1.9607
Foxo1 pS270 | 0.9588 | 0.7421 | –

Compound | log2 fold change cGMP vs Control [3] | log2 fold change Disulfide vs Control [4] | further results
Olr1571 pS170 (AISSSQGK; also: phosphoserine (pS170), site in peptide not given here) | -4.008 | -1.218 | –
Rnf123 pS690 (FLSTAAVSL[Met(O)]TPR; also: phosphoserine, site not given here) | 3.971 | -1.634 | –
RApSTIEMPQQAR [phosphopeptide from the cardiac protein phospholamban] | – | – | phosphopeptide abundance relative to control, PKGIα activated by Cys42 oxidation ([4]; PLN pSer16, P<0.05, n=4): significantly increased relative to control
CAP-Gly domain-containing linker protein 2: PKGIα substrate, phospho site S353 | – | – | Log2 fold change in phosphorylation, cGMP versus control [3]: 2.05*; Log2 fold change in phosphorylation, Disulfide versus control ([4]; n=4): 0.98
Pde4a pS140 (RE[pS]FLYR) | 1.223 | 1.1526 | –
Map1a pS460 | 2.406 | 0.5914 | –
Tnni3 pS167 (AKE[pS]LDLR) | – | – | log2 fold changes [3]: 3.492; log2 fold changes [4]: 1.654
CC(=O)OC[C@H]1O[C@@H]([S-])[C@H](OC(C)=O)[C@@H](OC(C)=O)[C@@H]1OC(C)=O.CCP(CC)CC.[Au+] [auranofin] | – | – | PKGIα disulfide dimer upon treatment [5]: accumulation of PKGIα disulfide dimer
Wipf1 pS324 (NLSLTSPTPPLPSPGR; also: phosphoserine pS324, several Ser, place not given here) | – | – | log2 fold changes [3]: 2.215; log2 fold changes [4]: -0.2547
Tnni3 pS151 | – | – | log2 fold changes [3]: 2.921; log2 fold changes [4]: -0.2077
Trip12 pS1073 | 1.63 | 0.661 | –
Mybbp1a pS1318 (ARLSLVSR; also: phosphoserine (pS1318), site in peptide not given here) | -0.9192 | -0.09923 | –
Ryr2 pS2798 (RISQTSQVSIDAAHGYSPR; also: phosphoserine (pS2798), site in peptide not given here) | – | – | log2 fold changes [3]: 1.758; log2 fold changes [4]: -0.1315
Prrc2a pS457 | 0.5056 | 0.2134 | –
Pln pS16 (RA[pS]TIEMPQQAR; not fully specified (residue 7)) | -0.8119 | 0.4097 | –
Cardiac phospholamban: PKGIα substrate, phospho site S16 (MEKVQYLTRSAIRRA[pS]TIEMPQQARQNLQNLFINFCLILICLLLICIIVMLL; cysteine pairing not given here; UniProt P61016 1-52, looked up) | – | – | Log2 fold change in phosphorylation, cGMP versus control [3]: −0.81; Log2 fold change in phosphorylation, Disulfide versus control ([4]; n=4): 0.41*
Speg pS2019 | – | – | log2 fold changes [3]: 1.632; log2 fold changes [4]: 1.452
Prkcdbp pS199 (KG[pS]EAAQPTPVKPPR) | 1.54 | 1.3478 | –
Nucb1 pS368 (AQRL[pS]QETEALGR) | 5.775 | 3.208 | –
Trmt10c pT377 (RKH[pT]GYLEVPEHSQAAFR) | 1.984 | 0.4487 | –
